In assay [1] the test system is Hepatocyte growth factor receptor (Homo sapiens), P08581 [Y1235D]. The following applies: at 10 µM.
For assay [2], the target named is Serine/threonine-protein kinase tousled-like 2 (Homo sapiens) (UniProt Q86UE8). Briefly: Selectivity interaction (Ambit KINOMEscan and KiNATiv profiling in Jurkat cells) EUB0000090b TLK2. The following applies: at 1 µM. It counts as cell-based.
In assay [3] the test system is eIF-2-alpha kinase GCN2 (Homo sapiens), Q9P2K8 [S808G]. The following applies: at 10 µM.
Assay [4] concerns the target Serine/threonine-protein kinase SIK3 (Homo sapiens) (UniProt Q9Y2K2). In words: Selectivity interaction (KinomeScan (DiscoverX)) EUB0001079a SIK3. The following applies: at 1 µM.
Assay [5] concerns the target T1, Serine/threonine-protein kinase TAO2 (Homo sapiens) (UniProt Q9UL54).
T1 sequence (whole entry): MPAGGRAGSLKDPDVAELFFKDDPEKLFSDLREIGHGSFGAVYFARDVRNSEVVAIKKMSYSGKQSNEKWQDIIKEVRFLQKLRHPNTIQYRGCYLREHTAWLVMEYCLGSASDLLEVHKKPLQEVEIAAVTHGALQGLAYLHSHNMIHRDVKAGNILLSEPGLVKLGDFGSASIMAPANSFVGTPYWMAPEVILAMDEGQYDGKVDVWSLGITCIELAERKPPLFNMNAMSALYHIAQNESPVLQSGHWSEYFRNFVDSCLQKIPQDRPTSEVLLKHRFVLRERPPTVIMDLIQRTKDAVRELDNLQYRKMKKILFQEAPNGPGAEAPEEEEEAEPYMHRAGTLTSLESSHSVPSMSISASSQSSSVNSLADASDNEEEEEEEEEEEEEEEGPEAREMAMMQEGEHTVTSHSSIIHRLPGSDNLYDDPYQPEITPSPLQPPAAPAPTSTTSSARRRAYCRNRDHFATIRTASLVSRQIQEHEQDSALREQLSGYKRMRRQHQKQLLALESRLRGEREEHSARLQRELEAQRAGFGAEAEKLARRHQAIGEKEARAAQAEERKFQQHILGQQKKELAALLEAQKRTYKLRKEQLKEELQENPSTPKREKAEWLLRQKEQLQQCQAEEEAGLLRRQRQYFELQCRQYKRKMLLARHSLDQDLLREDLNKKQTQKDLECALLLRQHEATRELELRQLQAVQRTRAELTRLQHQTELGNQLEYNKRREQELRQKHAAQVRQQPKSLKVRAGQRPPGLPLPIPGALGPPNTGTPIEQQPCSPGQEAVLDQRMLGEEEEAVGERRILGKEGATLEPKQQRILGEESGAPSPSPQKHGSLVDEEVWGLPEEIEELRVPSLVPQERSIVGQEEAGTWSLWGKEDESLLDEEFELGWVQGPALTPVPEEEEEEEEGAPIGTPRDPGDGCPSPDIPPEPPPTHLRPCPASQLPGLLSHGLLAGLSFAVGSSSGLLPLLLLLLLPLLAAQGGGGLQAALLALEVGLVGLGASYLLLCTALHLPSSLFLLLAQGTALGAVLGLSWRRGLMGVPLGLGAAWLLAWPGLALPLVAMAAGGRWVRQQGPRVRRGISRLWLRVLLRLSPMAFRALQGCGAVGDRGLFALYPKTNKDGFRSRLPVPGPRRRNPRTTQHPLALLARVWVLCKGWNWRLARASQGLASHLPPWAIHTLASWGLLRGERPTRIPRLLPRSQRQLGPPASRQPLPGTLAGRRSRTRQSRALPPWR
In words: Selectivity interaction (KinomeScan (DiscoverX)) EUB0001079a TAOK2. The conditions noted are these: at 1 µM.

The target in assay [6] is Cyclin-dependent kinase 15 (Homo sapiens) (UniProt Q96Q40). In words: Selectivity interaction (KinomeScan (DiscoverX)) EUB0000655a CDK15. The conditions noted are these: at 10 µM.
Chain of Cyclin-dependent kinase 15 (Homo sapiens) (Q96Q40 whole entry): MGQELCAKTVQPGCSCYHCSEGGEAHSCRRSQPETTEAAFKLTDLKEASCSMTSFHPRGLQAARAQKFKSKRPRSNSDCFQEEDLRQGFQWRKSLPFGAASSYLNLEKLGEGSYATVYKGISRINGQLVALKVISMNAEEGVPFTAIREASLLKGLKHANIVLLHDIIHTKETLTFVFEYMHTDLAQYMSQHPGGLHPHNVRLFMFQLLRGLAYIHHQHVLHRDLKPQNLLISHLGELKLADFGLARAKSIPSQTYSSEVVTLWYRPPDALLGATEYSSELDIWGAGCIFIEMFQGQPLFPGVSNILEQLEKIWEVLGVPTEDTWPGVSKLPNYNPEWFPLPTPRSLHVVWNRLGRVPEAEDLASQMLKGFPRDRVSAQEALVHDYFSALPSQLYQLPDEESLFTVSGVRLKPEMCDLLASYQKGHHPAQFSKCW
In assay [7] the target is T2, Gamma-aminobutyric acid receptor subunit alpha-1 (Homo sapiens) (UniProt P14867).
T2 sequence (whole entry): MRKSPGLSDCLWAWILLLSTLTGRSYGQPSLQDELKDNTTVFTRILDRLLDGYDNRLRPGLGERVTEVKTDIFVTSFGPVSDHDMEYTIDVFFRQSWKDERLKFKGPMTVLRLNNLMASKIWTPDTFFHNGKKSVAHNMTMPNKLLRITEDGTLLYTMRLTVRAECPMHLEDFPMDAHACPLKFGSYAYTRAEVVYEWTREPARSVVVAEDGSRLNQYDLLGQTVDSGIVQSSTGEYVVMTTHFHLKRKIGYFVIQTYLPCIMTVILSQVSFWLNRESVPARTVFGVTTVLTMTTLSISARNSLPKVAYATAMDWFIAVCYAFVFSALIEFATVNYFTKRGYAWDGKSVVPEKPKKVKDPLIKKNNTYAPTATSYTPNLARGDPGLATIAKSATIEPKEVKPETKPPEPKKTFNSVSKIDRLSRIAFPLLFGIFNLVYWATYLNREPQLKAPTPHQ
Briefly: Selectivity interaction (Eurofins CEREP Diversity Profile (receptors and ion channels)) EUB0000279b GABRA1. The following applies: at 10 µM.

Assay [8] has as its target Serine/threonine-protein kinase PLK3 (Homo sapiens, UniProt Q9H4B4). Briefly: Selectivity interaction (Kinase panel (Z-LYTE Assay)) EUB0001632a PLK3. The following applies: at 10 µM.
For assay [9], the target named is Cyclin-dependent kinase 16 (Homo sapiens) (UniProt Q00536). In words: Selectivity interaction (KinomeScan (DiscoverX)) EUB0000607a CDK16. The following applies: at 10 µM.
Chain of Cyclin-dependent kinase 16 (Homo sapiens) (Q00536 whole entry): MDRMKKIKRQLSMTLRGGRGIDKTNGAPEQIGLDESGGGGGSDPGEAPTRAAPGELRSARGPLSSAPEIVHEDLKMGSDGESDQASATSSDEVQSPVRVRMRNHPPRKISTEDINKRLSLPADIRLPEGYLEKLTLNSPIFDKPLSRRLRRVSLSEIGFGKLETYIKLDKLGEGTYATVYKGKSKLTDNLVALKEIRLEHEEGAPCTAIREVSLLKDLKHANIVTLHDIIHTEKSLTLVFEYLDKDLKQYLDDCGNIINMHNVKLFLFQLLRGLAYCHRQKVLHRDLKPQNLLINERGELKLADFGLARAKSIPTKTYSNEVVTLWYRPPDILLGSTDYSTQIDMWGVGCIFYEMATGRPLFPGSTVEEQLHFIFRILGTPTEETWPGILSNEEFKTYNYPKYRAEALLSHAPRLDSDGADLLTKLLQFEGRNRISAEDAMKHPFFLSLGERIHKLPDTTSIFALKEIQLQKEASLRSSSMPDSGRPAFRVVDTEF
For assay [10], the system named is Proto-oncogene tyrosine-protein kinase receptor Ret (Homo sapiens), P07949 [M918T]. Briefly: (§1) Selectivity interaction (KinomeScan (DiscoverX)) EUB0000607a RET. The conditions noted are these: at 10 µM.
The test system of assay [11] is Proto-oncogene tyrosine-protein kinase receptor Ret (Homo sapiens), P07949 [V804M]. Described as §1. The following applies: at 10 µM.
The target of assay [12] is T3, Aurora kinase A (Homo sapiens) (UniProt O14965).
T3 sequence (whole entry): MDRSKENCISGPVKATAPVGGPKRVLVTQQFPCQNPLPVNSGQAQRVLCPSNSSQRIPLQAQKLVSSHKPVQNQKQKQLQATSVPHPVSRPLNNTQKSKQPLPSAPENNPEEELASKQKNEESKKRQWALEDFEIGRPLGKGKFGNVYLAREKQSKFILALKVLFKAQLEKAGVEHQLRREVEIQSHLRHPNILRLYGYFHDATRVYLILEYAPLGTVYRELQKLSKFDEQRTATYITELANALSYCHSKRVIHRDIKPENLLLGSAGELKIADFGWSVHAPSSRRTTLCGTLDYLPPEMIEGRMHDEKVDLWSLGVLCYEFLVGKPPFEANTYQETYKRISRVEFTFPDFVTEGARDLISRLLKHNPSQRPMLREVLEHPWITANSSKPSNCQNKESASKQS
Briefly: Selectivity interaction (ActivX KiNativ screen (kinase selectivity in THP-1 cell lysates)) EUB0000639a STK6. The conditions noted are these: lysate, at 1 µM. The class given is subcellular.

The target in assay [13] is Calcium/calmodulin-dependent protein kinase type II subunit gamma (Homo sapiens) (UniProt Q13555). Briefly: Selectivity interaction (KinomeScan (DiscoverX)) EUB0000229b CAMK2G. The conditions noted are these: at 10 µM.
Assay [14] deals with Proto-oncogene tyrosine-protein kinase Src (Homo sapiens, UniProt P12931). In words: Selectivity interaction (Kinase panel (enzymatic assay)) EUB0000595a SRC.
Chain of Proto-oncogene tyrosine-protein kinase Src (P12931 2-536 limits assumed): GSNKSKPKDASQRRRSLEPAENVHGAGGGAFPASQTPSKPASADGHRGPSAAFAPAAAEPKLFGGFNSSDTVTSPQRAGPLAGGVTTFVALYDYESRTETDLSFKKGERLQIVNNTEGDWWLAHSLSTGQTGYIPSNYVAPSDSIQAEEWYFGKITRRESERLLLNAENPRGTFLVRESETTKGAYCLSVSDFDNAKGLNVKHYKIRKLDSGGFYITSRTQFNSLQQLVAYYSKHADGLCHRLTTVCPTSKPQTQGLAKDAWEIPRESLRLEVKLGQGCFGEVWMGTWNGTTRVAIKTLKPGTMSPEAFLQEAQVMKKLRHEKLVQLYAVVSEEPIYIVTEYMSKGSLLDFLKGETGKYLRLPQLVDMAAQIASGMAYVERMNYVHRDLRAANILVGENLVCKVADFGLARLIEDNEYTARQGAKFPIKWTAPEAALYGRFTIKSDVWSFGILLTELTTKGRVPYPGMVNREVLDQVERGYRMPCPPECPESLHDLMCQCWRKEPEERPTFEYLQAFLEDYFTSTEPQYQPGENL

Usually IC50 stands for the concentration that inhibits the measured activity by half.

Chain of Serine/threonine-protein kinase PLK3 (Q9H4B4 whole entry, looked up): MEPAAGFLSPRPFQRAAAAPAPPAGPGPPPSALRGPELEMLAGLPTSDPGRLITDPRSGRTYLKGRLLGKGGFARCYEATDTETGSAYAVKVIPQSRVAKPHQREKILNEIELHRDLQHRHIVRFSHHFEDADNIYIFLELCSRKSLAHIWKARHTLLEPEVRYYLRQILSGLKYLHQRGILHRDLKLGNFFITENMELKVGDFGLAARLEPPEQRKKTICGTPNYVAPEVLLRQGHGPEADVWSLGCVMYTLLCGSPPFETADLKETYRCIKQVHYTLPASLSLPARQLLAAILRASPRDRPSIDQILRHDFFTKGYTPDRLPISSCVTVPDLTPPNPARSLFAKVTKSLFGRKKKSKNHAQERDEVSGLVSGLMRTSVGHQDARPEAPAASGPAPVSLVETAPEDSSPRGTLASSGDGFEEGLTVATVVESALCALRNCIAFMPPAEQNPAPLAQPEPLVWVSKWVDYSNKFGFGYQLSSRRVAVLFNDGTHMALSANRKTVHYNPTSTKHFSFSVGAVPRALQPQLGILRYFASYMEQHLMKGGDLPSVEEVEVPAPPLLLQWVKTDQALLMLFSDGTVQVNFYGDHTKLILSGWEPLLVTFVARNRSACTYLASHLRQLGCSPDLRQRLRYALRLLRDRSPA
Chain of Serine/threonine-protein kinase SIK3 (Homo sapiens) (Q9Y2K2 whole entry, looked up): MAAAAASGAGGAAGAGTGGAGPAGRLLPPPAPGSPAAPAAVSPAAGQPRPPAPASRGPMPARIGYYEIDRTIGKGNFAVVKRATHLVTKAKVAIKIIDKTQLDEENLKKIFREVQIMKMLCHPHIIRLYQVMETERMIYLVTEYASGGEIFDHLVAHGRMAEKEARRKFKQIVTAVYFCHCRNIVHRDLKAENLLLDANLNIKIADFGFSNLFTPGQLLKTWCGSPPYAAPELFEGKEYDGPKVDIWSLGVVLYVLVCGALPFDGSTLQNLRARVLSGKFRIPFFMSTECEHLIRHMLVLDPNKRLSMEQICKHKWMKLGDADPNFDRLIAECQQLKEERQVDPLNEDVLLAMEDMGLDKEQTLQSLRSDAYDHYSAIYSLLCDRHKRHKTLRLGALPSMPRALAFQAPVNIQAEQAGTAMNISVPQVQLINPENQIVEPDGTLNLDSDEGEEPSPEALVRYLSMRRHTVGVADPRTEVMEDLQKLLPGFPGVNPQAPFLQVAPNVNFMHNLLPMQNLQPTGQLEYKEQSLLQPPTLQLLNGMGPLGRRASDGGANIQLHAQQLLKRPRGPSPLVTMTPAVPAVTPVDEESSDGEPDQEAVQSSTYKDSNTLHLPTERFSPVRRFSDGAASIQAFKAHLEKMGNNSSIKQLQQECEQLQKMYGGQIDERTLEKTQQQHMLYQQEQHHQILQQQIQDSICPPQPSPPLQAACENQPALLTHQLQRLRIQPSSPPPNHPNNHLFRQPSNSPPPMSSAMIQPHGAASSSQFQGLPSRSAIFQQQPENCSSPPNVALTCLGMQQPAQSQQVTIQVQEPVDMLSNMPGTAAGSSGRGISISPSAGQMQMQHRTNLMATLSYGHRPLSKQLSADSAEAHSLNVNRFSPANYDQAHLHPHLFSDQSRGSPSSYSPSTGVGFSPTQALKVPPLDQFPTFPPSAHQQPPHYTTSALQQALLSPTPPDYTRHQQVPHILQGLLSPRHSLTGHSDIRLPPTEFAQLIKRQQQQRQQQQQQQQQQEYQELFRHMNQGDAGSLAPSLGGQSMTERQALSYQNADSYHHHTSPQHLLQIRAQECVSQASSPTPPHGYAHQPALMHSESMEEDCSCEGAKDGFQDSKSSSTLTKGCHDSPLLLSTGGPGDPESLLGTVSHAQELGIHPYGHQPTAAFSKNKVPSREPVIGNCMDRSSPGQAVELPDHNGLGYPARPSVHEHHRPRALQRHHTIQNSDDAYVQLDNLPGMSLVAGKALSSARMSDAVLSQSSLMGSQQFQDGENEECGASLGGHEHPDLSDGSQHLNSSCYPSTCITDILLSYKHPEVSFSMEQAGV
Chain of Hepatocyte growth factor receptor (Homo sapiens), P08581 [Y1235D] (P08581 whole entry Y1235D): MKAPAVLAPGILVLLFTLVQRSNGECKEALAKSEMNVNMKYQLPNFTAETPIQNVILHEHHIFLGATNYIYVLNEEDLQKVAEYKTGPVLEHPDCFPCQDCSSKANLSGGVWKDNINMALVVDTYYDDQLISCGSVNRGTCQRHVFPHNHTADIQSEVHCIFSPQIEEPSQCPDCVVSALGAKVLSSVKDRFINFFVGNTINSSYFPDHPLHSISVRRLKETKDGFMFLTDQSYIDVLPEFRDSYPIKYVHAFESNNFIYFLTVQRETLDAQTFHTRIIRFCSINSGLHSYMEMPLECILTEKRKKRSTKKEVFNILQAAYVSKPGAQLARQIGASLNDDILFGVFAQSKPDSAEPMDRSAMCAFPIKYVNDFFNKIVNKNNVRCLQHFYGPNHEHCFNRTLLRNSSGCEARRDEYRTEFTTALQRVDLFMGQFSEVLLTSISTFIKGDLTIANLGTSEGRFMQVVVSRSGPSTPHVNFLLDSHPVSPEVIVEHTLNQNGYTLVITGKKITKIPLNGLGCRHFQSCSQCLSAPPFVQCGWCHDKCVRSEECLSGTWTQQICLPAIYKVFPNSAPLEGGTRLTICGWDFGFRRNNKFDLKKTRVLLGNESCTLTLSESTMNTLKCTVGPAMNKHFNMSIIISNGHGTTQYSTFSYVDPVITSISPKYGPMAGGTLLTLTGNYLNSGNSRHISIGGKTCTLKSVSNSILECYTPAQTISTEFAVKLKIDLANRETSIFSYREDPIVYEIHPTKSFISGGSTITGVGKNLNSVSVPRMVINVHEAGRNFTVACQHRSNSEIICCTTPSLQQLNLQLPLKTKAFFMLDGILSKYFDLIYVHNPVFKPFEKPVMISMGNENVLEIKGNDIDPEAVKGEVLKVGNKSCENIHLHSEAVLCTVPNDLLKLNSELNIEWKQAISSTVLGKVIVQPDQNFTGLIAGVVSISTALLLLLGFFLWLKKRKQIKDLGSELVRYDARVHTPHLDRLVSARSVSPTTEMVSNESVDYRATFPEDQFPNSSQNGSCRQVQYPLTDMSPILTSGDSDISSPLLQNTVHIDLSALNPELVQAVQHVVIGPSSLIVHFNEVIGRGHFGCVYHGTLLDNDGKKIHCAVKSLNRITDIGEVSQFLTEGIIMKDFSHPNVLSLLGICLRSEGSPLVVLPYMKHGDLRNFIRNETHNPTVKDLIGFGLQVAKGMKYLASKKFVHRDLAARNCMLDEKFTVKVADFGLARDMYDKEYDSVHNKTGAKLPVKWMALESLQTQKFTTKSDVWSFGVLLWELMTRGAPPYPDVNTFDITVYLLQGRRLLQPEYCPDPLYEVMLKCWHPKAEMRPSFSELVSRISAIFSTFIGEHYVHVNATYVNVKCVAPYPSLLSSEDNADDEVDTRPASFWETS

In turn, `Cc1cc([C@@H](C)Nc2ccccc2C(=O)O)c2nc(N3CCOCC3)cc(=O)n2c1` [AZD-6482] had a % of control in assay [1] of 78%. For `CN(C)C/C=C/C(=O)Nc1ccc(C(=O)N2CCCC(Nc3ncc(Cl)c(-c4c[nH]c5ccccc45)n3)C2)cc1` (centres undefined), the % of control in assay [2] was 93%. `CCN(CC)CCCCNc1ncc2cc(-c3cc(OC)cc(OC)c3)c(NC(=O)NC(C)(C)C)nc2n1` had a % of control in assay [3] of 100%. As for `Nc1cnc(N2CCc3cc(S(=O)(=O)Nc4c(F)cc(Cl)cc4F)cc(N4CCCC4=O)c32)nc1` [TP-020n], the % of control in [4] is 83%; in [5], 78%. On to `CN(C)CCOc1ccc(-c2nc(-c3ccncc3)c(-c3ccc4c(c3)CC/C4=N\O)[nH]2)cc1`, for which, in assay [6], the % of control amounted to 100%. Compound `CC(=O)c1cc(-c2ccccc2OCC2CC2)c2ncccn12` displayed a % of control in assay [7] of 112%. In assay [8], `Cn1cc(-n2cnc3c(NCc4nc5cc(Cl)c(Cl)cc5[nH]4)nc(N4CCOCC4)nc32)cn1` gave a % of control of 0.242%. On to `CNC(=O)Nc1ccc(-c2nc(N3CC4CCC(C3)O4)c3cnn(C4CCC5(CC4)OCCO5)c3n2)cc1`, for which the figures for the % of control in assay [9], in assay [10] and in assay [11] were 100%, 73% and 100%, respectively. Turning to `CC[C@@H]1[C@H](F)C(=O)N[C@@H]1COc1nccc2cc(C(N)=O)c(OC)cc12` [ZIMLOVISERTIB], the % of inhibition in assay [12] is 9.2%. Regarding `COc1cc(N(C)c2ccnc3ccc(C(F)(F)F)cc23)cc(OC)c1OC`, the % binding in assay [13] stood at 90%. Turning to `COCC(=O)NC/C=C/c1ccc2ncnc(Nc3ccc(Oc4ccc(C)nc4)c(C)c3)c2c1` [CP-724714], the IC50 in assay [14] was greater than 10 µM.
